Experimental data from patent US20090098097A1, “COMPOSITION FOR NORMALIZING BLOOD PRESSURE” (KANEKA CORPORATION, priority 2006, published 2009).

Experiments:
[1] = system: healthy male and female volunteers; assay: Evaluation of blood pressure normalization by reduced coenzyme Q10 in healthy subjects; type: in vivo, human; conditions: for systolic blood pressure / diastolic blood pressure relative to before ingestion (100): 4 weeks after ingestion; for systolic blood pressure: before breakfast; for change in blood pressure after ingestion as compared to before ingestion (in words): 150 mg per day for 4 weeks
Method: Healthy male and female volunteers (20 subjects) ingested 5 soft capsules (total 150 mg) per day each containing 30 mg of reduced coenzyme Q10 (containing about 2% of oxidized coenzyme Q10), and the blood pressure before breakfast was measured before and after ingestion for 4 weeks. After the measurement, the subjects were divided into three groups of hypotension group (n=8, not more than 110 mmHg), normal blood pressure group (n=8, 110-130 mmHg) and mild hypertension group (n=4, 130-150 mmHg), according to the systolic blood pressure before ingestion, and analyzed.

healthy male volunteers = assay: Evaluation of blood pressure normalization by oxidized coenzyme Q10 in healthy subjects; type: in vivo, human; conditions: for systolic blood pressure / diastolic blood pressure relative to before ingestion (100): 4 weeks after ingestion; for systolic blood pressure: before breakfast
Method: Healthy male volunteers (22 subjects) ingested soft capsule preparation containing oxidized coenzyme Q10 (150 mg) by 6 capsules (total 900 mg) per day, and the blood pressure before breakfast was measured before and after ingestion for 4 weeks. After the measurement, the subjects were divided into three groups of hypotension group (n=6, not more than 110 mmHg), normal blood pressure group (n=8, 110-130 mmHg) and mild hypertension group (n=8, 130-150 mmHg), according to the systolic blood pressure before ingestion, and analyzed. […] Consequently, a hypotension improving effect of oxidized coenzyme Q10 in healthy human subjects has been clarified.

| Compound | systolic blood pressure ([1]; hypotension group (n=8, not more than 110 mmHg), 150 mg per day soft capsules, before ingestion 99.6 ± 4.9) [mmHg] | change in blood pressure after ingestion as compared to before ingestion (in words) ([1]; hypotension group) | diastolic blood pressure relative to before ingestion (100) ([1]; hypotension group, 150 mg per day, **p < 0.01 U-test) | systolic blood pressure ([1]; mild hypertension group (n=4, 130-150 mmHg), 150 mg per day, before ingestion 140.5 ± 9.2) [mmHg] | change in blood pressure after ingestion as compared to before ingestion (in words) ([1]; mild hypertension group) | diastolic blood pressure relative to before ingestion (100) ([1]; mild hypertension group, 150 mg per day, *p < 0.05 U-test) | systolic blood pressure ([1]; normal blood pressure group (n=8, 110-130 mmHg), 150 mg per day, before ingestion 125.3 ± 3.1) [mmHg] | change in blood pressure after ingestion as compared to before ingestion (in words) ([1]; normal blood pressure group) | diastolic blood pressure relative to before ingestion (100) ([1]; normal blood pressure group, 150 mg per day) | systolic blood pressure (healthy male volunteers; hypotension group (n=6, not more than 110 mmHg), 900 mg per day soft capsules, before ingestion 105.5 ± 4.4) [mmHg] | diastolic blood pressure relative to before ingestion (100) (healthy male volunteers; hypotension group, 900 mg per day, **p < 0.01 U-test) | systolic blood pressure (healthy male volunteers; mild hypertension group (n=8, 130-150 mmHg), 900 mg per day, before ingestion 135.8 ± 4.6) [mmHg] | diastolic blood pressure relative to before ingestion (100) (healthy male volunteers; mild hypertension group, 900 mg per day) | systolic blood pressure (healthy male volunteers; normal blood pressure group (n=8, 110-130 mmHg), 900 mg per day, before ingestion 126.1 ± 2.7) [mmHg] | change in blood pressure after ingestion as compared to before ingestion (in words) (healthy male volunteers; normal blood pressure group, 900 mg per day for 4 weeks) | diastolic blood pressure relative to before ingestion (100) (healthy male volunteers; normal blood pressure group, 900 mg per day) |
| --- | --- | --- | --- | --- | --- | --- | --- | --- | --- | --- | --- | --- | --- | --- | --- | --- |
| COc1c(O)c(C)c(C/C=C(\C)CC/C=C(\C)CC/C=C(\C)CC/C=C(\C)CC/C=C(\C)CC/C=C(\C)CC/C=C(\C)CC/C=C(\C)CC/C=C(\C)CCC=C(C)C)c(O)c1OC [reduced coenzyme Q10] | 117.5 ± 6.2 | significant increase in the blood pressure | (118**) | 125.1 ± 6.1 | significant decrease in the blood pressure | (89*) | 125.5 ± 9.1 | did not show significant variations | (100) | – | – | – | – | – | – | – |
| COC1=C(OC)C(=O)C(C/C=C(\C)CC/C=C(\C)CC/C=C(\C)CC/C=C(\C)CC/C=C(\C)CC/C=C(\C)CC/C=C(\C)CC/C=C(\C)CC/C=C(\C)CCC=C(C)C)=C(C)C1=O [oxidized coenzyme Q10] | – | – | – | – | – | – | – | – | – | 126.5 ± 2.9 | (120**) | 134.8 ± 9.4 | (100) | 127.6 ± 7.7 | did not show significant variations | (101) |
